According to BindingDB's records for patent US20250353858 (BEONE MEDICINES I GMBH, 2025):

Columns and labels:
[1] = target: Diacylglycerol kinase zeta (Homo sapiens, UniProt Q13574); test: Biochemical DGK IC50 Assay
Protocol: (§1) Enzymatic reactions of DGKζ, DGKα and DGKδ were performed using ADP-Glo assay with lipid micelle substrate. […] Full length DGKα (D21-10BG, SignalChem) and full length DGKδ (D23-10G, SignalChem) were purchased. […] The resulted product was resuspended in buffer containing 25 mM HEPES pH 7.0, 0.5 mM EDTA and 160 mM Octyl β-D glucopyranoside by vigorous mixing and ultrasonic (IID, Scientz).Final concentration in reaction Enzyme Enzyme (nM) ATP (μM) DAG (μM)DGKα 7.5 140 80DGKδ 10 140 80DGKζ 0.5 140 80The inhibition activities testing for the compound disclosed herein were carried out at room temperature in assay buffer containing 50 mM HEPES, 10 mM MgCl2, 0.01% BSA, 0.1 mM Na3VO4, 0.005% Tween-20 and 0.01 mM CaCl2. […] 3 μL 2× enzyme solution was added to wells. […] After 1 hour reaction, 5 μL ADP-Glo reagent (Promga V9101) was added and incubated for 40 minutes. 10 μL Kinase Detection reagent was added and incubated for 30 minutes. Luminescence was measured on a microplate reader (PHERAstar FSX, BMG labtech). The IC50s are calculated based on inhibition of enzyme activity in the presence of increasing concentrations of compounds.

[2] = target: Diacylglycerol kinase alpha (Homo sapiens, UniProt P23743); test: Biochemical DGK IC50 Assay
Protocol: as §1

Sequence of Diacylglycerol kinase alpha (P23743 whole entry): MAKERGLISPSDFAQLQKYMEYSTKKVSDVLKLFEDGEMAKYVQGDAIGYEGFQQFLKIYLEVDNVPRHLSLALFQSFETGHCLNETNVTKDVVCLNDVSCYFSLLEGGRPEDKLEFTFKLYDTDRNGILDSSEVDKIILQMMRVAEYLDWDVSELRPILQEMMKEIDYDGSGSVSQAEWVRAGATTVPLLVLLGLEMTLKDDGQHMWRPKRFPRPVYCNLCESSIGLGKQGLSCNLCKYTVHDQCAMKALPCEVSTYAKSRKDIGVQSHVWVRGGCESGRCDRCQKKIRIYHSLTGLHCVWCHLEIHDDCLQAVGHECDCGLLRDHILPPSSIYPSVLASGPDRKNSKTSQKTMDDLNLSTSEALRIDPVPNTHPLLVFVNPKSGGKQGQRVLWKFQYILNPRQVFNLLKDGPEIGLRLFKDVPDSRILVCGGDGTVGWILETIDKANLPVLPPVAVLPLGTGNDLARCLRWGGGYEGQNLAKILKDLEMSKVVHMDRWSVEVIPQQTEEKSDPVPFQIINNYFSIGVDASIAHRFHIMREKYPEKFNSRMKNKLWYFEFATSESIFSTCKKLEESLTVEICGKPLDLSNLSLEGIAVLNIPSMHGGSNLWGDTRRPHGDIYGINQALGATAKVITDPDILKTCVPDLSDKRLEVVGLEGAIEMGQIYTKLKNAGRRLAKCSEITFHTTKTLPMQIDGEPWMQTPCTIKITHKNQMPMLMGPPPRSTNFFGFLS
Sequence of Diacylglycerol kinase zeta (Q13574 as listed by the source): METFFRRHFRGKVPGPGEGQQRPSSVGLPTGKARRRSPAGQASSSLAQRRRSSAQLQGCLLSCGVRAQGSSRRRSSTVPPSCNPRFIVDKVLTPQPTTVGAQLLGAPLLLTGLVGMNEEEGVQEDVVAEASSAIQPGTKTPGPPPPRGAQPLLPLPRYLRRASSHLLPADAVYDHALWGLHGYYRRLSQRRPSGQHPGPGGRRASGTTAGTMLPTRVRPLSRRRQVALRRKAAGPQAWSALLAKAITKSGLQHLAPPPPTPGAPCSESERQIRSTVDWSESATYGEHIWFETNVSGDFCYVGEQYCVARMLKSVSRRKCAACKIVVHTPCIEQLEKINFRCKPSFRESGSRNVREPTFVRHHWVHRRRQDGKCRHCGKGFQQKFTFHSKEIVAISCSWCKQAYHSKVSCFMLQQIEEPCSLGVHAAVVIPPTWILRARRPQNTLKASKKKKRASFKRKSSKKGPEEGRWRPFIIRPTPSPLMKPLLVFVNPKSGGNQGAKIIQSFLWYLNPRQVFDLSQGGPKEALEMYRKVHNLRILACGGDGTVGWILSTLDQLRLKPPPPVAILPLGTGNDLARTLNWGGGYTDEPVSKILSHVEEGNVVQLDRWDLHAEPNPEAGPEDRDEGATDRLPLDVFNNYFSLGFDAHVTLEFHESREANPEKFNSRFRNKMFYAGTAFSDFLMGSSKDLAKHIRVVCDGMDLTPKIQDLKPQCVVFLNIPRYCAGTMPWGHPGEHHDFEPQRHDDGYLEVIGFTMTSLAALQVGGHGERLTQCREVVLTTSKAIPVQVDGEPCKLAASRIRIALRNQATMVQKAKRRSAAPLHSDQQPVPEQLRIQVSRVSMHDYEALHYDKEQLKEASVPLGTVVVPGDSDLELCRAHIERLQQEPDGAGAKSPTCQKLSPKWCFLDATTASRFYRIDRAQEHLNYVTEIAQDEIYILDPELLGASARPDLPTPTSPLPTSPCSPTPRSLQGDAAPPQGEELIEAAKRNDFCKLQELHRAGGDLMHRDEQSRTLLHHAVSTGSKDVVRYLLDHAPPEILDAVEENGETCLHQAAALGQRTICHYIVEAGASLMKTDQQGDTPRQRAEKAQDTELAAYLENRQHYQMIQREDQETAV

Row | Compound | IC50 [1] [µM] | IC50 [2] [µM]
1 | CC(c1ccc2c(n1)OC(C)(C)CO2)N1C[C@H](C)N(c2cc(=O)n(C)c3cn(CC#N)nc23)C[C@H]1C (stereo partly drawn) [2-(7-((2S,5R)-4-(1-(3,3-dimethyl-2,3-dihydro-[1,4]dioxino[2,3-b]pyridin-6-yl)ethyl)-2,5-dimethylpiperazin-1-yl)-4-methyl-5-oxo-4,5-dihydro-2H-pyrazolo[4,3-b]pyridin-2-yl)acetonitrile] | 0.075 | 61.5
2 | C[C@@H]1CC(c2cc(=O)n(C)c3cc(CC#N)nn23)CCN1[C@H](C)c1ccc2nccnc2c1 (stereo partly drawn) [US20250353858, Compound A33b] | – | > 10
